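Step 1: Grow cells in 96-well plates. Step 2: Expose to compound for 48 hours at 5 concentrations. Step 3: Interpolate endpoints linearly; if unreached, use highest concentration. Abbreviation: GI50, concentration required for 50% inhibition of growth. The concentration for full growth arrest is given as TGI.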
Assays:
Experiment in all cases: inhibition of tumour cell growth, NCI panel, 48 h
[1] = test system: SR leukemia
[2] = test system: HOP-62 NSCLC
[3] = test system: MALME-3M melanoma
[4] = test system: HL-60(TB) leukemia
[5] = test system: U251 CNS
[6] = test system: SK-MEL-28 melanoma
[7] = test system: HCT-15 colon
[8] = test system: HCC-2998 colon
[9] = test system: DU-145 prostate
[10] = test system: SK-MEL-2 melanoma
[11] = test system: MDA-MB-468 breast
[12] = test system: A549 NSCLC
[13] = test system: LOX IMVI melanoma
[14] = test system: MCF7 breast
[15] = test system: IGROV1 ovarian
[16] = test system: CCRF-CEM leukemia
[17] = test system: BT-549 breast
[18] = test system: MDA-MB-231 breast
[19] = test system: HS 578T breast
[20] = test system: UO-31 renal
[21] = test system: SW-620 colon
[22] = test system: SF-539 CNS
[23] = test system: MOLT-4 leukemia
[24] = test system: HT29 colon
[25] = test system: SF-268 CNS
[26] = test system: OVCAR-8 ovarian
[27] = test system: A498 renal
[28] = test system: OVCAR-4 ovarian
[29] = test system: HOP-92 NSCLC
[30] = test system: ACHN renal
[31] = test system: SK-OV-3 ovarian
[32] = test system: T-47D breast
[33] = test system: SNB-19 CNS
[34] = test system: NCI-H522 lung
[35] = test system: HCT-116 colon
[36] = test system: UACC-257 melanoma
[37] = test system: COLO 205 colon
[38] = test system: RPMI-8226 leukemia
[39] = test system: MDA-MB-435
[40] = test system: SK-MEL-5 melanoma
[41] = test system: OVCAR-5 ovarian
[42] = test system: TK-10 renal
[43] = test system: NCI-H226 lung
[44] = test system: OVCAR-3 ovarian
[45] = test system: M14 melanoma
[46] = test system: SNB-75 CNS
[47] = test system: K-562 leukemia
[48] = test system: RXF 393 renal
[49] = test system: CAKI-1 renal
[50] = test system: SF-295 CNS
[51] = test system: UACC-62 melanoma
[52] = test system: NCI-H23 lung
[53] = test system: 786-0 renal
[54] = test system: EKVX NSCLC
[55] = test system: KM12 colon
[56] = test system: SN12C renal
[57] = test system: NCI-H460 lung
[58] = test system: PC-3 prostate

## COc1ccccc1[C@H]1C(C(=O)c2ccc(Cl)cc2)C2(N[C@@H]1c1ccccc1)C(=O)Nc1ccc(Cl)cc12 (some centres not stated)
[1]
  GI50: 1.86 µM
  TGI: 26.6 µM
[2]
  GI50: 9.31 µM
  TGI: > 57.5 µM
[3]
  GI50: 7.44 µM
  TGI: 21.1 µM
[4]
  GI50: 1.77 µM
  TGI: 25.2 µM
[5]
  GI50: 2.86 µM
  TGI: > 57.5 µM
[6]
  GI50: 16.7 µM
  TGI: > 57.5 µM
[7]
  GI50: 6.98 µM
  TGI: > 57.5 µM
[8]
  GI50: 9.77 µM
  TGI: 43.8 µM
[9]
  GI50: 2.56 µM
  TGI: > 57.5 µM
[10]
  GI50: 4.08 µM
  TGI: 13.6 µM
[11]
  GI50: 1.38 µM
  TGI: 16.2 µM
[12]
  GI50: 2.76 µM
  TGI: > 57.5 µM
[13]
  GI50: 1.72 µM
  TGI: 21.2 µM
[14]
  GI50: 2 µM
  TGI: > 57.5 µM
[15]
  GI50: 9.15 µM
  TGI: > 57.5 µM
[16]
  GI50: 2.14 µM
  TGI: > 57.5 µM
[17]
  GI50: 1.35 µM
  TGI: 18.6 µM
[18]
  GI50: 1.36 µM
  TGI: 12.5 µM
[19]
  GI50: 2.56 µM
  TGI: 34.2 µM
[20]
  GI50: 2.26 µM
  TGI: > 57.5 µM
[21]
  GI50: 4.28 µM
  TGI: > 57.5 µM
[22]
  GI50: 8.51 µM
  TGI: 30.3 µM
[23]
  GI50: 1.92 µM
  TGI: > 57.5 µM
[24]
  GI50: 1.73 µM
  TGI: 7.91 µM
[25]
  GI50: 9.79 µM
  TGI: > 57.5 µM
[26]
  GI50: 7.52 µM
  TGI: > 57.5 µM
[27]
  GI50: 15.3 µM
  TGI: 52.1 µM
[28]
  GI50: 10.4 µM
  TGI: > 57.5 µM
[29]
  GI50: 4.52 µM
  TGI: 37.1 µM
[30]
  GI50: 6.62 µM
  TGI: 53.7 µM
[31]
  GI50: 5.17 µM
  TGI: > 57.5 µM
[32]
  GI50: 4.61 µM
  TGI: > 57.5 µM
[33]
  GI50: 14 µM
  TGI: > 57.5 µM
[34]
  GI50: 1.3 µM
  TGI: 5.51 µM
[35]
  GI50: 2.13 µM
  TGI: > 57.5 µM
[36]
  GI50: 4.86 µM
  TGI: > 57.5 µM
[37]
  GI50: 9.92 µM
  TGI: 21.1 µM
[38]
  GI50: 5.91 µM
  TGI: 50.7 µM
[39]
  GI50: 1.82 µM
  TGI: 8.94 µM
[40]
  GI50: 2.69 µM
  TGI: 10.6 µM
[41]
  GI50: 8.44 µM
  TGI: > 57.5 µM
[42]
  GI50: 15.8 µM
  TGI: > 57.5 µM
[43]
  GI50: 8.32 µM
  TGI: > 57.5 µM
[44]
  GI50: 2.76 µM
  TGI: > 57.5 µM
[45]
  GI50: 3.55 µM
  TGI: > 57.5 µM
[46]
  GI50: 2.27 µM
  TGI: > 57.5 µM
[47]
  GI50: 1.78 µM
  TGI: > 57.5 µM
[48]
  GI50: 1.66 µM
  TGI: 13.8 µM
[49]
  GI50: 1.68 µM
  TGI: > 57.5 µM
[50]
  GI50: 3.43 µM
  TGI: > 57.5 µM
[51]
  GI50: 1.72 µM
  TGI: 8.69 µM
[52]
  GI50: 8.68 µM
  TGI: > 57.5 µM
[53]
  GI50: 8.96 µM
  TGI: 35.5 µM
[54]
  GI50: 8.12 µM
  TGI: > 57.5 µM
[55]
  GI50: 8.36 µM
  TGI: > 57.5 µM
[56]
  GI50: 2.83 µM
  TGI: 13.5 µM
[57]
  GI50: 2.32 µM
[58]
  GI50: 1.46 µM
  TGI: > 57.5 µM

## COc1cc(/C=C/C(=O)c2cnn(-c3cc(=O)[nH]c4ccccc34)c2C)cc(OC)c1OC
[1]
  GI50: 3.82 µM
  TGI: > 100 µM
[2]
  GI50: 4.43 µM
  TGI: 27.1 µM
[3]
  GI50: 5.84 µM
  TGI: > 100 µM
[4]
  GI50: 3.52 µM
  TGI: > 100 µM
[5]
  GI50: 2.74 µM
  TGI: 13.6 µM
[6]
  GI50: 4.94 µM
  TGI: > 100 µM
[7]
  GI50: 3.23 µM
  TGI: 26.1 µM
[8]
  GI50: 4 µM
  TGI: > 100 µM
[9]
  GI50: 4.21 µM
  TGI: > 100 µM
[10]
  GI50: 2.89 µM
  TGI: 10.2 µM
[11]
  GI50: 2.22 µM
  TGI: 6.06 µM
[12]
  GI50: 3.78 µM
  TGI: > 100 µM
[13]
  GI50: 2.1 µM
  TGI: 5.64 µM
[14]
  GI50: 2.88 µM
  TGI: > 100 µM
[15]
  GI50: 3 µM
  TGI: 16.3 µM
[16]
  GI50: 2.58 µM
  TGI: 21.5 µM
[17]
  GI50: 3.48 µM
  TGI: 24.9 µM
[18]
  GI50: 3.06 µM
  TGI: 14.1 µM
[19]
  GI50: 4.54 µM
  TGI: > 100 µM
[20]
  GI50: 4.03 µM
  TGI: 37.1 µM
[21]
  GI50: 3.59 µM
  TGI: > 100 µM
[22]
  GI50: 2.01 µM
  TGI: 4.84 µM
[23]
  GI50: 3.28 µM
  TGI: > 100 µM
[24]
  GI50: 3.14 µM
  TGI: > 100 µM
[25]
  GI50: 4.26 µM
  TGI: > 100 µM
[26]
  GI50: 2.11 µM
  TGI: 5.09 µM
[27]
  GI50: 34.2 µM
  TGI: > 100 µM
[28]
  GI50: 5.48 µM
  TGI: > 100 µM
[29]
  GI50: 7.59 µM
  TGI: 51.8 µM
[30]
  GI50: 3.72 µM
  TGI: 25.5 µM
[31]
  GI50: 5.03 µM
  TGI: 35.9 µM
[32]
  GI50: 2.8 µM
  TGI: > 100 µM
[33]
  GI50: 5.23 µM
  TGI: > 100 µM
[34]
  GI50: 3.74 µM
  TGI: 39.8 µM
[35]
  GI50: 7.13 µM
  TGI: > 100 µM
[36]
  GI50: 7.03 µM
  TGI: > 100 µM
[37]
  GI50: 3.71 µM
  TGI: 17.5 µM
[38]
  GI50: 2.99 µM
  TGI: > 100 µM
[39]
  GI50: 3.34 µM
  TGI: > 100 µM
[40]
  GI50: 3.51 µM
  TGI: 14.7 µM
[42]
  GI50: 4.62 µM
  TGI: > 100 µM
[43]
  GI50: 5.24 µM
  TGI: 47.8 µM
[44]
  GI50: 3.57 µM
  TGI: > 100 µM
[45]
  GI50: 4.45 µM
  TGI: > 100 µM
[47]
  GI50: 2.68 µM
  TGI: > 100 µM
[48]
  GI50: 2.65 µM
  TGI: 8.21 µM
[49]
  GI50: 4.05 µM
  TGI: > 100 µM
[50]
  GI50: 2.95 µM
  TGI: 18.1 µM
[51]
  GI50: 5.18 µM
  TGI: 20.5 µM
[52]
  GI50: 2.66 µM
  TGI: 7.98 µM
[53]
  GI50: 4.56 µM
  TGI: 28.9 µM
[54]
  GI50: 3.42 µM
  TGI: > 100 µM
[55]
  GI50: 3.83 µM
  TGI: > 100 µM
[56]
  GI50: 2.2 µM
  TGI: 8.36 µM
[57]
  GI50: 2.55 µM
  TGI: 7.29 µM
[58]
  GI50: 7.39 µM
  TGI: > 100 µM

From PubChem BioAssay (NCI)
